Measurements reported in patent US9932346B2, “Pyrrolopyrimidines for use in influenza virus infection” (Janssen Sciences Ireland UC, priority 2014, dated 2018).
pIC50: −log10 of the molar value.

Columns and labels:
[1] = in vitro; details: dog
[2] = test system: influenza virus A/Taiwan/1/86 (H1N1); experiment: organism not typed; type: cell-based; details: MDCK cells infected with influenza A/Taiwan/1/86 (H1N1), three days post-virus exposure, CPE by ATP levels
[3] = test system: MDCK cells; details: dog, 3 days

| Compound | CC50 at 3 days [1] [nM] | pIC50 ([2]; MDCK, 72 h) | CC50 [3] [nM] | pIC50 [2] |
| --- | --- | --- | --- | --- |
| O=C(N[C@H]1CCC[C@@H](Nc2nc(-c3c[nH]c4ncncc34)ncc2F)C1)C1CCCCO1 (mixture of isomers) [Compound 38] | > 25000 | 6.42 | – | – |
| O=C(O)[C@H]1C2CCC(CC2)[C@@H]1Nc1nc(-c2c[nH]c3ncncc23)ncc1F (mixture of isomers) [Compound 54] | > 25000 | 6.34 | – | – |
| O=C(N[C@H]1CCC[C@@H](Nc2nc(-c3c[nH]c4ncncc34)ncc2F)C1)N1CCCC1 (racemic) [Compound 7] | > 25000 | 8.30 | – | – |
| O=C(N[C@H]1CCC[C@@H](Nc2nc(-c3c[nH]c4ncncc34)ncc2F)C1)c1ccn2nccc2n1 (racemic) [Compound 29] | > 25000 | 8.00 | – | – |
| Cc1cc(C(=O)N[C@H]2CCC[C@@H](Nc3nc(-c4c[nH]c5ncncc45)ncc3F)C2)nn1C (racemic) [Compound 30] | > 25000 | 7.68 | – | – |
| O=C(Nc1ccccc1)N[C@H]1CCC[C@@H](Nc2nc(-c3c[nH]c4ncncc34)ncc2F)C1 (racemic) [Compound 31] | > 25000 | 7.68 | – | – |
| Cc1cc(C(=O)N[C@H]2CCC[C@@H](Nc3nc(-c4c[nH]c5ncncc45)ncc3F)C2)on1 (racemic) [Compound 32] | > 25000 | 7.46 | – | – |
| O=C(N[C@H]1CCC[C@@H](Nc2nc(-c3c[nH]c4ncncc34)ncc2F)C1)c1ccncc1 (racemic) [Compound 33] | > 100000 | 7.38 | – | – |
| Cc1cc(C(=O)N[C@@H]2CCC[C@@H](Nc3nc(-c4c[nH]c5ncncc45)ncc3F)C2)no1 (racemic) [Compound 34] | > 25000 | 7.40 | – | – |
| O=C(N[C@H]1CCC[C@@H](Nc2nc(-c3c[nH]c4ncncc34)ncc2F)C1)c1ccccn1 (racemic) [Compound 35] | > 25000 | 8.70 | – | – |
| Cc1nc(C(=O)N[C@H]2CCC[C@@H](Nc3nc(-c4c[nH]c5ncncc45)ncc3F)C2)c(C)o1 (racemic) [Compound 36] | > 25000 | 7.40 | – | – |
| O=C(N[C@H]1CCC[C@@H](Nc2nc(-c3c[nH]c4ncncc34)ncc2F)C1)C1CCC1 (racemic) [Compound 37] | > 25000 | 6.69 | – | – |
| O=C(N[C@H]1CCC[C@@H](Nc2nc(-c3c[nH]c4ncncc34)ncc2F)C1)C1CC1 (racemic) [Compound 39] | > 25000 | 6.94 | – | – |
| Cc1noc(C)c1C(=O)N[C@H]1CCC[C@@H](Nc2nc(-c3c[nH]c4ncncc34)ncc2F)C1 (racemic) [Compound 40] | > 25000 | 6.72 | – | – |
| CC(C)NC(=O)N[C@H]1CCC[C@@H](Nc2nc(-c3c[nH]c4ncncc34)ncc2F)C1 (racemic) [Compound 41] | > 25000 | 6.50 | – | – |
| Cn1cccc1C(=O)N[C@H]1CCC[C@@H](Nc2nc(-c3c[nH]c4ncncc34)ncc2F)C1 (racemic) [Compound 45] | > 25000 | 8.40 | – | – |
| O=C(N[C@H]1CCC[C@@H](Nc2nc(-c3c[nH]c4ncncc34)ncc2F)C1)c1ccno1 (racemic) [Compound 47] | > 25000 | 7.96 | – | – |
| O=C(N[C@H]1CCC[C@@H](Nc2nc(-c3c[nH]c4ncncc34)ncc2F)C1)c1cccnc1 (racemic) [Compound 49] | > 25000 | 7.34 | – | – |
| CC(C)(C)[C@@H](CO)Nc1nc(-c2c[nH]c3ncncc23)ncc1F (racemic) [Compound 55] | > 25000 | 6.26 | – | – |
| COC(=O)N[C@H]1CCC[C@@H](Nc2nc(-c3c[nH]c4ncncc34)ncc2F)C1 (racemic) [Compound 56] | > 25000 | 6.22 | – | – |
| O[C@H]1CCCC[C@@H]1Nc1nc(-c2c[nH]c3ncncc23)ncc1F (racemic) [Compound 58] | > 100000 | 6.20 | – | – |
| CCC(=O)N[C@H]1CCC[C@@H](Nc2nc(-c3c[nH]c4ncncc34)ncc2F)C1 (racemic) [Compound 62] | > 25000 | 6.15 | – | – |
| O=C(O)c1ccccc1C(=O)N[C@H]1CCC[C@@H](Nc2nc(-c3c[nH]c4ncncc34)ncc2F)C1 (racemic) [Compound 63] | > 25000 | 6.14 | – | – |
| CC(C)(C)C(=O)N[C@H]1CCC[C@@H](Nc2nc(-c3c[nH]c4ncncc34)ncc2F)C1 (racemic) [Compound 64] | > 25000 | 6.12 | – | – |
| COCC(=O)N[C@H]1CCC[C@@H](Nc2nc(-c3c[nH]c4ncncc34)ncc2F)C1 (racemic) [Compound 66] | > 25000 | 6.09 | – | – |
| CC(C)C(=O)N[C@H]1CCC[C@@H](Nc2nc(-c3c[nH]c4ncncc34)ncc2F)C1 (racemic) [Compound 73] | > 25000 | 6.03 | – | – |

| Compound | CC50 at 3 days [1] [nM] | pIC50 ([2]; MDCK, 72 h) | CC50 [3] [nM] | pIC50 [2] |
| --- | --- | --- | --- | --- |
| N#Cc1cc(F)c(N[C@@H]2CCC[C@H](NC(=O)N3CCCC3)C2)nc1-c1c[nH]c2ncncc12 (stereo in doubt) [Compound 9, (+/−)-N-((cis)-3-((5-cyano-3-fluoro-6-(7H-pyrrolo[2,3-d]pyrimidin-5-yl)pyridin-2-yl)amino)cyclohexyl)pyrrolidine-1-carboxamide] | 8740 | 8.05 | – | – |
| N#Cc1cc(F)c(N[C@H]2CCC[C@@H](NC(=O)N3CCCC3)C2)nc1-c1c[nH]c2ncncc12 (stereo in doubt) [Compound 93] | > 25000 | 8.22 | – | – |
| Cn1cnc(C(=O)N[C@@H]2CCC[C@@H](Nc3nc(-c4c[nH]c5ncncc45)c(C#N)cc3F)C2)c1 [Compound 12] | > 25000 | 7.52 | – | – |
| Cn1cnc(C(=O)N[C@H]2CCC[C@@H](Nc3nc(-c4c[nH]c5ncncc45)ncc3F)C2)c1 [Compound 14] | > 25000 | 7.33 | – | – |
| Cn1cnc(C(=O)N[C@H]2CCC[C@@H](Nc3nc(-c4c[nH]c5ncncc45)c(F)cc3F)C2)c1 [Compound 16] | > 25000 | 7.44 | – | – |
| CC(C)(C)C(CC(=O)O)Nc1nc(-c2c[nH]c3ncncc23)c(C(F)(F)F)cc1F (stereo not drawn) [Compound 18] | 2480 | 7.36 | – | – |
| CC(C)(C)C(CC(=O)O)Nc1nc(-c2c[nH]c3ncncc23)c(C#N)cc1F (stereo not drawn) [Compound 21] | 13400 | 6.97 | – | – |
| O=C(N[C@H]1CCC[C@@H](Nc2nc(-c3c[nH]c4ncncc34)c(F)cc2F)C1)N1CCCC1 [Compound 23] | > 25000 | 7.48 | – | – |
| COC(=O)[C@H]1C2CCC(CC2)[C@@H]1Nc1nc(-c2c[nH]c3ncncc23)ncc1F [Compound 24] | > 25000 | 6.49 | – | – |
| O=C(N[C@H]1CCC[C@@H](Nc2nc(C3CNc4ncncc43)ncc2F)C1)OCc1ccccc1 (stereo partly drawn) [Compound 28] | > 25000 | 6.45 | – | – |
| O=C(O)[C@H]1C2CCC(CC2)[C@@H]1Nc1nc(-c2c[nH]c3ncncc23)c(C(F)(F)F)cc1F [Compound 44] | 9400 | 8.52 | – | – |
| O=C(N[C@H]1CCC[C@@H](Nc2nc(-c3c[nH]c4ncncc34)cnc2F)C1)N1CCCC1 [Compound 46] | > 25000 | 8.30 | – | – |
| Cn1cnc(C(=O)N[C@H]2CCC[C@@H](Nc3nc(-c4c[nH]c5ncncc45)ncc3F)C2)c1 [Compound 48] | – | – | > 25000 | 7.46 |
| CC1(C(CC(=O)O)Nc2nc(-c3c[nH]c4ncncc34)ncc2F)CCCC1 (stereo not drawn) [Compound 53] | > 25000 | 6.19 | – | – |
| Fc1cnc(-c2c[nH]c3ncncc23)nc1NC1[C@H]2CC3C[C@H](C2)C[C@H]1C3 (stereo partly drawn) [Compound 57] | 5200 | 6.18 | – | – |
| CC(C)Nc1nc(-c2c[nH]c3ncncc23)ncc1F [Compound 61] | > 25000 | 6.20 | – | – |
| Fc1cnc(-c2c[nH]c3ncncc23)nc1NC1CCCCC1 [Compound 65] | 11600 | 6.09 | – | – |
| COC(=O)CC(Nc1nc(-c2c[nH]c3ncncc23)ncc1F)C(C)(C)C (stereo not drawn) [Compound 69] | > 25000 | 6.08 | – | – |
| CC[C@@]1(C(=O)O)CCCC[C@H]1Nc1nc(-c2c[nH]c3ncncc23)ncc1F [Compound 72] | 10300 | 6.07 | – | – |
| Nc1ncnc2[nH]cc(-c3ncc(F)c(N[C@@H]4CCC[C@H](C(=O)N5CCCC5)C4)n3)c12 [Compound 79] | > 25000 | 6.82 | – | – |
| Cc1[nH]c2ncncc2c1-c1ncc(F)c(N[C@@H]2CCC[C@H](NC(=O)N3CCCC3)C2)n1 [Compound 83] | > 25000 | 6.15 | – | – |
| Cc1ncnc2[nH]cc(-c3ncc(F)c(N[C@@H]4CCC[C@H](NC(=O)N5CCCC5)C4)n3)c12 [Compound 87] | > 25000 | 6.33 | – | – |
| Cc1ncc2c(-c3ncc(F)c(N[C@@H]4CCC[C@H](NC(=O)N5CCCC5)C4)n3)c[nH]c2n1 [Compound 92] | > 25000 | 6.74 | – | – |
| N#Cc1cc(F)c(N[C@@H]2CCC[C@H](NC(=O)c3ccccn3)C2)nc1-c1c[nH]c2ncncc12 [Compound 98] | > 25000 | 8.70 | – | – |
| N#Cc1cc(F)c(N[C@H]2C3CCC(CC3)[C@@H]2C(=O)O)nc1-c1c[nH]c2ncncc12 [Compound 101] | 10500 | 7.44 | – | – |
